Source: PubChem BioAssay (NCI)
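Interpolation was linear, between the two tested concentrations surrounding the appropriate level; five concentrations were tested over 48 hours in 96-well plates. At the TGI there is no net growth.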

Key:
Experiment in all cases: inhibition of tumour cell growth, NCI panel, 48 h
786-0 renal = tested on: 786-0 renal
A498 renal = tested on: A498 renal
A549 NSCLC = tested on: A549 NSCLC
ACHN renal = tested on: ACHN renal
BT-549 breast = tested on: BT-549 breast
CAKI-1 renal = tested on: CAKI-1 renal
CCRF-CEM leukemia = tested on: CCRF-CEM leukemia
COLO 205 colon = tested on: COLO 205 colon
DU-145 prostate = tested on: DU-145 prostate
EKVX NSCLC = tested on: EKVX NSCLC
HCC-2998 colon = tested on: HCC-2998 colon
HCT-116 colon = tested on: HCT-116 colon
HCT-15 colon = tested on: HCT-15 colon
HL-60(TB) leukemia = tested on: HL-60(TB) leukemia
HOP-62 NSCLC = tested on: HOP-62 NSCLC
HOP-92 NSCLC = tested on: HOP-92 NSCLC
HS 578T breast = tested on: HS 578T breast
IGROV1 ovarian = tested on: IGROV1 ovarian
K-562 leukemia = tested on: K-562 leukemia
KM12 colon = tested on: KM12 colon
M14 melanoma = tested on: M14 melanoma
MALME-3M melanoma = tested on: MALME-3M melanoma
MCF7 breast = tested on: MCF7 breast
MDA-MB-231 breast = tested on: MDA-MB-231 breast
MDA-MB-435 = tested on: MDA-MB-435
MDA-N = tested on: MDA-N
MOLT-4 leukemia = tested on: MOLT-4 leukemia
NCI-H226 lung = tested on: NCI-H226 lung
NCI-H23 lung = tested on: NCI-H23 lung
NCI-H522 lung = tested on: NCI-H522 lung
NCI/ADR-RES ovarian = tested on: NCI/ADR-RES ovarian
OVCAR-3 ovarian = tested on: OVCAR-3 ovarian
OVCAR-4 ovarian = tested on: OVCAR-4 ovarian
OVCAR-5 ovarian = tested on: OVCAR-5 ovarian
OVCAR-8 ovarian = tested on: OVCAR-8 ovarian
PC-3 prostate = tested on: PC-3 prostate
RPMI-8226 leukemia = tested on: RPMI-8226 leukemia
RXF 393 renal = tested on: RXF 393 renal
SF-268 CNS = tested on: SF-268 CNS
SF-295 CNS = tested on: SF-295 CNS
SF-539 CNS = tested on: SF-539 CNS
SK-MEL-2 melanoma = tested on: SK-MEL-2 melanoma
SK-MEL-28 melanoma = tested on: SK-MEL-28 melanoma
SK-MEL-5 melanoma = tested on: SK-MEL-5 melanoma
SK-OV-3 ovarian = tested on: SK-OV-3 ovarian
SN12C renal = tested on: SN12C renal
SNB-19 CNS = tested on: SNB-19 CNS
SNB-75 CNS = tested on: SNB-75 CNS
SR leukemia = tested on: SR leukemia
SW-620 colon = tested on: SW-620 colon
T-47D breast = tested on: T-47D breast
TK-10 renal = tested on: TK-10 renal
U251 CNS = tested on: U251 CNS
UACC-257 melanoma = tested on: UACC-257 melanoma
UACC-62 melanoma = tested on: UACC-62 melanoma
UO-31 renal = tested on: UO-31 renal
HT29 colon = tested on: HT29 colon
LOX IMVI melanoma = tested on: LOX IMVI melanoma
NCI-H460 lung = tested on: NCI-H460 lung

SMILES: CC(O)c1cc2c(s1)C(=O)c1ccsc1C2=O (configuration not stated)
- TGI (786-0 renal): 2830 nM
- TGI (A498 renal): 2950 nM
- TGI (A549 NSCLC): 373 nM
- TGI (ACHN renal): 267 nM
- TGI (BT-549 breast): 230 nM
- TGI (CAKI-1 renal): 1960 nM
- TGI (CCRF-CEM leukemia): 781 nM
- TGI (COLO 205 colon): 3230 nM
- TGI (DU-145 prostate): 94.7 nM
- TGI (EKVX NSCLC): 551 nM
- TGI (HCC-2998 colon): 576 nM
- TGI (HCT-116 colon): 2720 nM
- TGI (HCT-15 colon): 118 nM
- TGI (HL-60(TB) leukemia): 79.1 nM
- TGI (HOP-62 NSCLC): 283 nM
- TGI (HOP-92 NSCLC): 967 nM
- TGI (HS 578T breast): 566 nM
- TGI (IGROV1 ovarian): 1250 nM
- TGI (K-562 leukemia): 412 nM
- TGI (KM12 colon): 1200 nM
- TGI (M14 melanoma): 241 nM
- TGI (MALME-3M melanoma): 44.9 nM
- TGI (MCF7 breast): 320 nM
- TGI (MDA-MB-231 breast): 624 nM
- TGI (MDA-MB-435): 26 nM
- TGI (MDA-N): 27.5 nM
- TGI (MOLT-4 leukemia): 594 nM
- TGI (NCI-H226 lung): 1320 nM
- TGI (NCI-H23 lung): 30.4 nM
- TGI (NCI-H522 lung): 381 nM
- TGI (NCI/ADR-RES ovarian): 743 nM
- TGI (OVCAR-3 ovarian): 169 nM
- TGI (OVCAR-4 ovarian): 533 nM
- TGI (OVCAR-5 ovarian): 300 nM
- TGI (OVCAR-8 ovarian): 1010 nM
- TGI (PC-3 prostate): 158 nM
- TGI (RPMI-8226 leukemia): 416 nM
- TGI (RXF 393 renal): 560 nM
- TGI (SF-268 CNS): 679 nM
- TGI (SF-295 CNS): 180 nM
- TGI (SF-539 CNS): 158 nM
- TGI (SK-MEL-2 melanoma): 264 nM
- TGI (SK-MEL-28 melanoma): 32.8 nM
- TGI (SK-MEL-5 melanoma): 19.8 nM
- TGI (SK-OV-3 ovarian): 5460 nM
- TGI (SN12C renal): 238 nM
- TGI (SNB-19 CNS): 553 nM
- TGI (SNB-75 CNS): 166 nM
- TGI (SR leukemia): 392 nM
- TGI (SW-620 colon): 511 nM
- TGI (T-47D breast): 1420 nM
- TGI (TK-10 renal): 1320 nM
- TGI (U251 CNS): 415 nM
- TGI (UACC-257 melanoma): 68.8 nM
- TGI (UACC-62 melanoma): 73.3 nM
- TGI (UO-31 renal): 413 nM

SMILES: O=c1c2cc(-c3ccccc3)sc2nc2n1N=C(c1ccc(Cl)cc1)CS2
- TGI (786-0 renal): > 100000 nM
- TGI (A498 renal): > 100000 nM
- TGI (A549 NSCLC): > 100000 nM
- TGI (ACHN renal): > 100000 nM
- TGI (BT-549 breast): > 100000 nM
- TGI (CAKI-1 renal): > 100000 nM
- TGI (CCRF-CEM leukemia): > 100000 nM
- TGI (COLO 205 colon): > 100000 nM
- TGI (DU-145 prostate): > 100000 nM
- TGI (EKVX NSCLC): > 100000 nM
- TGI (HCC-2998 colon): > 100000 nM
- TGI (HCT-116 colon): > 100000 nM
- TGI (HCT-15 colon): > 100000 nM
- TGI (HL-60(TB) leukemia): > 100000 nM
- TGI (HOP-62 NSCLC): > 100000 nM
- TGI (HOP-92 NSCLC): > 100000 nM
- TGI (HS 578T breast): > 100000 nM
- TGI (HT29 colon): > 100000 nM
- TGI (IGROV1 ovarian): > 100000 nM
- TGI (K-562 leukemia): > 100000 nM
- TGI (KM12 colon): > 100000 nM
- TGI (LOX IMVI melanoma): > 100000 nM
- TGI (MALME-3M melanoma): > 100000 nM
- TGI (MCF7 breast): > 100000 nM
- TGI (MDA-MB-231 breast): > 100000 nM
- TGI (MDA-MB-435): > 100000 nM
- TGI (MDA-N): > 100000 nM
- TGI (MOLT-4 leukemia): > 100000 nM
- TGI (NCI-H226 lung): > 100000 nM
- TGI (NCI-H23 lung): > 100000 nM
- TGI (NCI-H460 lung): > 100000 nM
- TGI (NCI-H522 lung): > 100000 nM
- TGI (NCI/ADR-RES ovarian): > 100000 nM
- TGI (OVCAR-3 ovarian): > 100000 nM
- TGI (OVCAR-4 ovarian): > 100000 nM
- TGI (OVCAR-5 ovarian): > 100000 nM
- TGI (OVCAR-8 ovarian): > 100000 nM
- TGI (PC-3 prostate): > 100000 nM
- TGI (RPMI-8226 leukemia): > 100000 nM
- TGI (RXF 393 renal): > 100000 nM
- TGI (SF-268 CNS): > 100000 nM
- TGI (SF-295 CNS): > 100000 nM
- TGI (SF-539 CNS): > 100000 nM
- TGI (SK-MEL-28 melanoma): > 100000 nM
- TGI (SK-MEL-5 melanoma): > 100000 nM
- TGI (SK-OV-3 ovarian): > 100000 nM
- TGI (SN12C renal): > 100000 nM
- TGI (SNB-75 CNS): > 100000 nM
- TGI (SR leukemia): > 100000 nM
- TGI (SW-620 colon): > 100000 nM
- TGI (T-47D breast): > 100000 nM
- TGI (TK-10 renal): > 100000 nM
- TGI (U251 CNS): > 100000 nM
- TGI (UACC-257 melanoma): > 100000 nM
- TGI (UACC-62 melanoma): > 100000 nM
- TGI (UO-31 renal): > 100000 nM
